IC50 data for 2 compounds are collected here from BindingDB's records for doi:10.1074/jbc.M606873200 (Incyte, 2006).

In the assay the target is T1, Tyrosine-protein phosphatase non-receptor type 1 [1-298] (Homo sapiens, UniProt P18031).
T1 construct: 1-298
T1 sequence (P18031 whole entry): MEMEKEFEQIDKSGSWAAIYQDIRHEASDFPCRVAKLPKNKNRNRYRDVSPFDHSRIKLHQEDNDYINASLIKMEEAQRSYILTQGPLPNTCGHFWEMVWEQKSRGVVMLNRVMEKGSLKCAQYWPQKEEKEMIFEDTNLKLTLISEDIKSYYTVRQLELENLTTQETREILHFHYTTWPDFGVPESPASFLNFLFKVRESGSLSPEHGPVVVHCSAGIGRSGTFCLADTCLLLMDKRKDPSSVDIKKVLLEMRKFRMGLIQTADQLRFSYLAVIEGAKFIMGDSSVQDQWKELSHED
Kind of assay: Phosphatase Inhibition Assay. As to conditions: pH 7; 22 °C.

Regarding `CC(=O)N[C@@H](Cc1ccccc1)C(=O)N[C@@H](Cc1ccc([C@H]2CC(=O)NS2(=O)=O)cc1)C(N)=O` [(2S)-N-[(1S)-1-carbamoyl-2-{4-[(5R)-1,1,3-trioxo-1,2-thiazolidin-5-yl]phenyl}ethyl]-2-acetamido-3-phenylpropanamide], the IC50 was 16 µM.
Compound `CC(=O)N[C@@H](Cc1ccccc1)C(=O)N[C@@H](Cc1ccc(C2=CC(=O)NS2(=O)=O)cc1)C(N)=O` [(2S)-N-[(1S)-1-carbamoyl-2-[4-(1,1,3-trioxo-2,3-dihydro-1,2-thiazol-5-yl)phenyl]ethyl]-2-acetamido-3-phenylpropanamide] came in with an IC50 of 3 µM.

For orientation: IC50 means the concentration that gives 50% inhibition. The low end stands for greater potency, the high end for weaker potency.
